The conditions of series [1]: ~4 months at ambient conditions.
The nature of series [2]: potassium laurate solubility in various solvents (solvent added dropwise under sonication). The format is physicochemical. As to conditions: thermodynamic from solid. Here is the method:
In order to select the reaction solvents and their optimized volumes, the solubility of potassium laurate in various solvents was checked by adding solvent to dissolve the solids under sonication. A vial was charged with potassium laurate (˜100 mg) and then solvent was added dropwise under sonication. The potassium laurate could not be dissolved with most solvents (200 vol.).

SMILES strings stand for the structures. Several values for one entry are separate records, joined by “and”; a condition that tells them apart may be missing. Equal values may be shown once. Read-outs that look alike come from different tables or passages of the source. Some results are limits rather than exact numbers.

With `C[N+]1(C)CCC(OC(=O)C(O)(c2ccccc2)C2CCCC2)C1` (centres unmarked) [glycopyrronium laurate], the “HPLC Results Glycopyrronium” value reads like this: (Expt. 1A: Me-THF Solution at RT over weekend) 87.72 AUC % and 87.72% AUC %; (Expt. 1B: Me-THF Solution at 50° C. over weekend, Bottom layer) 49.47% AUC %; (Expt. 1B: Me-THF Solution at 50° C. over weekend, Top layer) 57 AUC % and 57.13% AUC %; (Expt. 2A: Me-THF Solution in the presence of Lauric Acid at RT over weekend) 89.44% AUC %; (Expt. 2B: Me-THF Solution in the presence of Lauric Acid at 50° C. over weekend, Bottom layer) 65.60% AUC %; (Expt. 2B: Me-THF Solution in the presence of Lauric Acid at 50° C. over weekend, Top layer) 69.58% AUC %.

On to `C[N+]1(C)CCC(OC(=O)C(O)(c2ccccc2)C2CCCC2)C1` (centres unmarked) [glycopyrronium stearate], for which the degradation over time entry in series [1] is listed as “degradation was observed”.

Consider `CCCCCCCCCCCC(=O)[O-].[K+]` [potassium laurate], for which the solubility (as a rule, the dissolved amount per volume that the medium holds) in series [2] (organic solvent or mixture, Acetone, 50° C.) was below 5000 µg/mL; in series [2] (organic solvent or mixture, Acetone, room temperature, read-out: potassium laurate solubility At Room Temperature), below 5000 µg/mL; in series [2] (organic solvent or mixture, Butyl Acetate, 50° C.) it was below 5000 µg/mL; in series [2] (organic solvent or mixture, Butyl Acetate, room temperature, read-out: potassium laurate solubility At Room Temperature) it was below 5000 µg/mL; in series [2] (organic solvent or mixture, Ethanol, room temperature, read-out: potassium laurate solubility At Room Temperature) it was around 14000 µg/mL; in series [2] (organic solvent or mixture, Ethyl Acetate, 50° C.) it was below 5000 µg/mL. Besides, the solubility in series [2] (organic solvent or mixture, Ethyl Acetate, room temperature, read-out: potassium laurate solubility At Room Temperature) is below 5000 µg/mL; in series [2] (organic solvent or mixture, IPA, 50° C.), below 5000 µg/mL; in series [2] (organic solvent or mixture, IPA, room temperature, read-out: potassium laurate solubility At Room Temperature), below 5000 µg/mL; in series [2] (organic solvent or mixture, Isopropyl Acetate, 50° C.) it was below 5000 µg/mL; in series [2] (organic solvent or mixture, Isopropyl Acetate, room temperature, read-out: potassium laurate solubility At Room Temperature), below 5000 µg/mL; in series [2] (organic solvent or mixture, MEK, 50° C.) it was below 5000 µg/mL. The solubility in series [2] (organic solvent or mixture, MEK, room temperature, read-out: potassium laurate solubility At Room Temperature) is below 5000 µg/mL; in series [2] (organic solvent or mixture, MIBK, 50° C.) it was below 5000 µg/mL; in series [2] (organic solvent or mixture, MIBK, room temperature, read-out: potassium laurate solubility At Room Temperature), below 5000 µg/mL; in series [2] (organic solvent or mixture, Methanol, room temperature, read-out: potassium laurate solubility At Room Temperature) it was around 50000 µg/mL; in series [2] (organic solvent or mixture, Methyl Acetate, 50° C.) it was below 5000 µg/mL; in series [2] (organic solvent or mixture, Methyl Acetate, room temperature, read-out: potassium laurate solubility At Room Temperature) it was below 5000 µg/mL. Also, the solubility in series [2] (Water, room temperature, read-out: potassium laurate solubility At Room Temperature) is around 138000 µg/mL.

The record behind these values is patent US10519109B2, “Glycopyrronium fatty acid salts and methods of making same” (QAAM PHARMACEUTICALS, LLC, priority 2015, dated 2019).
